Test results published in US20250161282A1, “PHARMACEUTICAL PYRIDYL COMPOSITIONS FOR TREATING AND PREVENTING DELAYED GRAFT FUNCTION” (Unicycive Therapeutics, Inc., priority 2023, published 2025).
Where a name gives a salt, the structure may show the parent alone. Read-outs that look alike come from different tables or passages of the source.

Key:
[1] = Phase I study Part 2, multiple ascending doses (MAD), BID oral fasted; assay type: in vivo, human; conditions: for dose-proportionality of exposure from 40 mg to 80 mg (Cmax and AUC(0-tau)): Day 1, analyte = labelled substance; for Tmax at 5 days: read-out: median Tmax
Source text: Part 2 of the study was a double-blind, randomized, placebo-controlled, MAD study.

[2] = Phase I study Part 1, single ascending doses (SAD), oral fasted
Protocol: (§1) In this Phase I study, the safety and tolerability of single ascending doses (SAD) of Compound 8 was administered to male and female subjects. The study was a single centre, double-blinded, placebo-controlled, randomized single ascending doses (SAD) and multiple ascending doses (MAD) study in healthy male and female subjects of non-childbearing potential.
(§2) Part 1 was a double-blinded, randomized, placebo-controlled, SAD study, including approximately 32 subjects in 4 cohorts of 8 subjects each (randomized to a ratio of 6 active and 2 placebo per cohort). The subjects received the regimens presented in Table A. The route of administration was oral and fasted.
(§3) Subjects received a single dose of Compound 8 Capsule or placebo in the morning following an overnight fast. For Regimen E, Period 2, cohort SAD 3 were readmitted to the clinical unit. There was a minimum 7-day washout between dosing occasions for Regimen C and Regimen E. Blood samples were collected at regular intervals for safety and PK analysis from Day −1 to discharge from the clinical unit.
(§4) In Part 1 of the study, subjects received a single oral doses of Compound 8 Capsule or placebo on one occasion in the fasted state, except for subjects in Cohort SAD 3 who received two single doses on two separate occasions. Doses ranged from 10 mg to 160 mg. In Part 2 of the study, subjects received single doses of Compound 8 Capsule or placebo BID for 4 consecutive days and once on Day 5 in the fasted state. Doses ranged from 40 mg to 80 mg.

[3] = tested on: contrast induced nephropathy; conditions: 10 mg BID dosing; cited from earlier work
[4] = tested on: unilateral IR model of AKI in rats; assay: unilateral IR model of AKI in rats (kidney functional markers, tubular injury); assay type: in vivo, male SD (Sprague Dawley) rats; conditions: for BUN vs IR vehicle: p<0.0001 (FIG. 4); for serum creatinine: p<0.0001 (FIG. 9A)
Protocol: A total of […] male SD (Sprague Dawley) rats were divided into 10 groups each with 10 rats/group as detailed in the Table 3. The ischemia was induced in the left kidney using a small clamp (Sugita standard aneurysm clip holding force 145 g) that was placed on the renal vascular pedicle for 30 min for all groups except SHAM group.
All rats were housed in metabolic cages for the collection of 24-hour urine samples for ACR, NGAL and β2-MG levels. After 24 hours, rats were anaesthetized, and blood samples were collected for sCre, and BUN levels. The left kidney was collected and processed for histology for tubular injury scores.
A total of additional 10 male SD (Sprague Dawley) rats were used along with the Group 1 (No IR) and Group 2 (IR); and other Groups listed in the Tabel 3; and conducted the study. The ischemia was induced in the left kidney of those additional 10 rats using a small clamp (Sugita standard aneurysm clip holding force 145 g) that was placed on the renal vascular pedicle for 30 min.
Nicorandil at 10 mg/kg, was administered 30 minutes prior to the induction of ischemia via intraperitoneal (ip) administration to the additional 10 rats along with the groups listed in Table 3. All additional 10 rats were housed in metabolic cages for the collection of 24-hour urine samples for ACR. After 24 hours, rats were anaesthetized, and blood samples were collected for sCre. The left kidney was collected and processed for histology for tubular injury scores along with the other groups as detailed in Table 3.

[5] = nicorandil 10 mg; cited from earlier work
clinical = conditions: both, human, plasma, oral
Protocol: as §1, §2, §3, §4

[6] = tested on: rat bilateral ischemia/reperfusion (IR) model; assay: rat bilateral ischemia/reperfusion (IR) model, oral Compound 8 (iodide salt); assay type: in vivo, male Sprague Dawley rats; conditions: for urine β2-MG levels and content compared with Group 2 (IR): iodide salt
Source text: Animal models of IRI (ischemia reperfusion injury), DGF (delayed graft function), and AKI (acute kidney injury) mimic many features seen in human kidney allografts. […] In 2011, the FDA held a workshop to review the current state of knowledge related to the effects of IRI on outcomes in kidney transplantation in animal models. The FDA stated animal models have implicated maladaptive host responses to […]. The maladaptive responses are changes in hemodynamics, decrease in oxygen tension, mitochondrial dysfunction, tubular injury, inflammation, etc.
In the rat bilateral IR model, the bilateral renal pedicle was clamped for 45 min for ischemia and then the clamp is removed to allow reperfusion. […] Urine β2-MG levels and content of Group 2 were higher than those in Group 1. Compared with Group 2, Groups 3 and 4 had lower urine β2-MG levels and content (n=10/group) (FIG. 1; […] at 10 mg/kg dose and p<0.01 at 20 mg/kg dose—as per one-way ANOVA multiple comparison test).

SMILES: O=C(NCCO[N+](=O)[O-])c1cccnc1 [Nicorandil, reference compound]
- dose-proportionality of exposure from 40 mg to 80 mg (Cmax and AUC(0-tau)) [1]: proportional increase
- dose proportionality of peak (20-160 mg) and total (40-160 mg) exposure ([2]; nicorandil after Compound 8, Cmax and AUC(0-last)): slightly greater than proportional
- activity in contrast induced nephropathy [3]: show activity
- proximal tubules, histological images ([4]; 10 mg/kg ip (FIG. 10D)): most all proximal tubules are healthy
- serum creatinine compared to Group 2 ([4]; 10 mg/kg ip single dose 30 min prior to ischemia, p<0.0001 (FIG. 10A)): significantly reduced
- ACR compared to Group 2 ([4]; 10 mg/kg ip single dose 30 min prior to ischemia, p<0.0001 (FIG. 10B)): significantly reduced
- tubular injury/damage compared to Group 2 ([4]; 10 mg/kg ip single dose 30 min prior to ischemia, p<0.0001 (FIG. 10C)): significantly reduced
- AUC [5]: 101 (range of 122-323) hour·ng/m
- Cmax [5]: 107 (range of 44-148) ng/mL
- Tmax [5]: 0.43 (range 0.25-0.75) hours

SMILES: C[C@@H](NC(=O)OC[n+]1cccc(C(=O)NCCO[N+](=O)[O-])c1)C1CCCCC1 [Compound 8, nitrate salt]
- serum creatinine vs IR vehicle ([4]; 5 mg/kg/iv single dose 30 min prior to ischemia, p<0.0001 (FIG. 2C)): phenomenally reduced
- BUN vs IR vehicle ([4]; 5 mg/kg/iv single dose 30 min prior to ischemia): phenomenally reduced
- urinary ACR vs IR vehicle ([4]; 5 mg/kg/iv single dose 30 min prior to ischemia, p<0.001 (FIG. 3C)): phenomenally reduced
- serum creatinine vs IR vehicle ([4]; 10 mg/kg/iv single dose 30 min prior to ischemia, p<0.0001 (FIG. 2C)): phenomenally reduced
- BUN vs IR vehicle ([4]; 10 mg/kg/iv single dose 30 min prior to ischemia): phenomenally reduced
- urinary ACR vs IR vehicle ([4]; 10 mg/kg/iv single dose 30 min prior to ischemia, p<0.001 (FIG. 3C)): phenomenally reduced
- urinary ACR vs IR vehicle ([4]; 25 mg/kg/ip single dose 30 min prior to ischemia, p<0.01 (FIG. 3B)): significantly reduced
- urinary ACR vs IR vehicle ([4]; 50 mg/kg/ip single dose 30 min prior to ischemia, p<0.001 (FIG. 3B)): significantly reduced
- serum creatinine vs IR vehicle ([4]; 50 mg/kg/ip single dose 30 min prior to ischemia, p<0.05 (FIG. 2B)): significantly reduced
- urinary ACR vs IR vehicle ([4]; 50 mg/kg/po single dose 30 min prior to ischemia, p<0.01 (FIG. 3A)): significantly reduced
- urinary ACR vs IR vehicle ([4]; 100 mg/kg/po single dose 30 min prior to ischemia, p<0.001 (FIG. 3A)): significantly reduced
- serum creatinine vs IR vehicle ([4]; 100 mg/kg/po single dose 30 min prior to ischemia, p<0.05 (FIG. 2A)): significantly reduced
- proximal convoluted tubular injury scores ([4]; intraperitoneal high dose 50 mg/kg, preventive, p<0.0001 (FIG. 6B)): effective in lowering
- tubular injury marker β2-MG (urinary) ([4]; intraperitoneal low dose 25 mg/kg, preventive, p<0.01 (FIG. 8)): effective in lowering
- tubular injury/damage, histological images ([4]; intraperitoneal route (FIG. 7D)): moderately ameliorated
- tubular injury marker NGAL (urinary) ([4]; intravenous high dose 10 mg/kg, preventive, p<0.0001 (FIG. 5B)): robustly effective in lowering
- proximal convoluted tubular injury scores ([4]; intravenous high dose 10 mg/kg, preventive, p<0.0001 (FIG. 6C)): robustly effective in lowering
- tubular injury marker NGAL (urinary) ([4]; intravenous low dose 5 mg/kg, preventive, p<0.0001 (FIG. 5B)): robustly effective in lowering
- proximal convoluted tubular injury scores ([4]; intravenous low dose 5 mg/kg, preventive, p<0.0001 (FIG. 6C)): robustly effective in lowering
- tubular injury/damage, histology ([4]; intravenous route, low and high doses (FIG. 6C, 7E)): markedly ameliorated
- tubular injury marker NGAL (urinary) ([4]; oral high dose 100 mg/kg, preventive, p<0.0001 (FIG. 5A)): effective in lowering
- proximal convoluted tubular injury scores/damage ([4]; oral high dose 100 mg/kg, preventive, p<0.0001 (FIG. 6A)): effective in lowering
- tubular injury marker NGAL (urinary) ([4]; oral low dose 50 mg/kg, preventive, p<0.0001 (FIG. 5A)): effective in lowering
- tubular injury/damage, histological images ([4]; oral route (FIG. 7C)): moderately ameliorated
- BUN ([4]; therapeutic regimen, 10 mg/kg/iv at 1 hour, p<0.001 (FIG. 9B)): phenomenally reduced
- BUN ([4]; therapeutic regimen, 10 mg/kg/iv at 4 hours, p<0.0001 (FIG. 9B)): phenomenally reduced
- urinary NGAL ([4]; therapeutic regimen, 10 mg/kg/iv at 4 hours, p<0.01 (FIG. 9C)): phenomenally reduced
- serum creatinine ([4]; therapeutic regimen, 10 mg/kg/iv single dose at 1 hour after ischemia): phenomenally reduced
- serum creatinine ([4]; therapeutic regimen, 10 mg/kg/iv single dose at 4 hours after ischemia): phenomenally reduced

SMILES: CC(NC(=O)OC[n+]1cccc(C(=O)NCCO[N+](=O)[O-])c1)C1CCCCC1 (stereo in doubt) [Compound 8, (S)-1-(((1-cyclohexylethylcarbamoyl)oxy)methyl)-3-((2-(nitroxy)ethyl)carbamoyl)pyridine-1-ium iodide]
- dose-proportionality of exposure from 40 mg to 80 mg (Cmax and AUC(0-tau)) [1]: approximate proportional increase
- half-life at 5 day ([1]; both sexes, human, plasma, oral, Day 5, both doses, reliable in 3 out of the 10 profiles, read-out: individual plasma half-life): 1.11 to 1.42 h
- Tmax at 5 days ([1]; both sexes, human, plasma, multiple oral doses 40 mg for 5 days): 1.5 h
- Tmax at 5 days ([1]; both sexes, human, plasma, multiple oral doses 80 mg for 5 days): 1 h
- dose proportionality of peak and overall exposure (Cmax, AUC(0-last)) ([2]; 10 mg to 160 mg dose range): sub-proportional increase
- Tmax (clinical): 0.5 to 1.5 h
- half-life (clinical): 0.74 to 2.58 h
- AUC(0-t) (clinical; 10 mg): > 0.127 ng·h/mL
- Cmax (clinical; 10 mg): > 1.01 ng/mL
- physical or behavioral abnormalities vs vehicle ([6]; 10 and 20 mg/kg oral): no physical or behavioral abnormalities
- significant changes in body weight vs vehicle ([6]; 10 and 20 mg/kg oral): no
- uACR vs vehicle ([6]; 10 and 20 mg/kg oral): no significant difference
- urine albumin concentration or total amount vs vehicle ([6]; 10 and 20 mg/kg oral): no significant difference
- urine creatinine concentration or total amount vs vehicle ([6]; 10 and 20 mg/kg oral): no significant difference
- creatinine marker of kidney function ([6]; doses up to 20 mg/kg oral): did not appear to have a significant impact
- histological markers of kidney function (histological scores for tubular injury) ([6]; doses up to 20 mg/kg oral): did not appear to have a significant impact
- urine β2-MG levels and content compared with Group 2 (IR) ([6]; 10 mg/kg oral 1 hour prior to ischemia, p<0.5 (FIG. 1)): lower
- urine β2-MG levels and content compared with Group 2 (IR) ([6]; 20 mg/kg oral 1 hour prior to ischemia, p<0.01 (FIG. 1)): lower

SMILES: CC(N)C1CCCCC1 (stereo not shown) [1-cyclohexylethylamine]
- subjects with quantifiable concentrations ([1]; multiple oral dosing 40 mg or 80 mg Compound 8 for 5 days): all subjects
- subjects with quantifiable concentrations ([1]; single dosing of Compound 8 Capsule 80 mg): all subjects
- PK profiles ([2]; after Compound 8 10 mg, 20 mg and 40 mg dose levels): entirely BLQ
- subjects with quantifiable concentrations ([2]; after Compound 8 160 mg): all subjects
